# Measured values: patent US6214839A, “Substituted 6-alkylphenanthridines” (Byk Gulden Lomberg Chemische Fabrik GmbH, priority 1997, dated 2001)
# Test system: PDE 4
# Experiment: Inhibition of PDE 4 activity
# Type: biochemical
# Settings: inhibitory concentration as -log IC50 (mol/l), method of Bauer and Schwabe adapted to microtiter plates
smiles,measurement,value
CCOc1cc2c(cc1OC)C([C@H]1CC[C@H](C(=O)OC)CC1)=N[C@H]1CCCC[C@@H]21 (relative stereo) [Compound 1],-log IC50,7.47
